{"source": "patent US8927463B2", "about": "“Sensitive high throughput method for DNA damage and repair” (priority 2013, dated 2015)", "test_system": "dsDNA", "assay": "Real-time DNA melting assay (PicoGreen/ROX melting curves)", "description": "Components of this assay include 1) a reaction vessel free from DNase and RNase, 2) a dsDNA-specific dye, 3) a reference dye 4) dsDNA, and 5) the genotoxicant(s). […] As the sample is heated in the real-time thermocycler, the dsDNA melts becoming single-stranded. Single-stranded DNA no longer supports PicoGreen fluorescence, thus the relative amount of PicoGreen to ROX fluorescence declines proportionately to the loss of DNA base-pairing. As will be understood by the skilled artisan upon reading this disclosure, alternative fluorometric dyes or spectrophotometric dyes can be used in the method of the present invention.\nIn one embodiment, the raw dsDNA-specific fluorescence is normalized to the corresponding reference fluorescence at each temperature point to correct for decreased dye fluorescence resulting directly from the increasing solution temperature. This normalized fluorescence is then graphed as a function of temperature to produce the melting curve. Initial fluorescence from this curve is used to determine the extent of double-strand breakage. The first derivative of this melting curve is then plotted and used to determine both the initial melting temperature and the melting rate across the entire temperature gradient. […] A schematic representation of the typical melting curves is shown in FIG. 1 wherein, with increasing pH, salinity, or temperature, DNA dissociation increases resulting in a decrease in relative fluorescence.\nThe ability to detect DNA-damaging agents was first examined under conditions under which only the pharmaceutical agent was allowed to interact with the dsDNA.\n(§1) Samples were analyzed using an ABI 7300 real time thermocycler over a temperature range of 4° C. to 99° C. Data is presented as PicoGreen fluorescence normalized to ROX.\nas §1\nSamples were analyzed over a temperature range of 4° C. to 99° C. using an ABI 7300 real time thermocycler. Data is presented as PicoGreen fluorescence normalized to ROX. […] When single strand breaks are in close proximity, double strand breaks can result.", "key": {"[1]": {"conditions": "dsDNA 1,000 ng/ml treated with increasing concentrations of compound, PicoGreen normalized to ROX, 4° C. to 99° C."}}, "note": "Entries after “also recorded” stand apart in the source; their conditions may differ. Like-named read-outs stand apart in the source and are kept apart here.", "data": [{"smiles": "C[C@]12CC[C@@H]3c4cc(O)c(O)cc4CC[C@H]3[C@@H]1CC[C@@H]2O", "note": "[2-hydroxyestradiol]", "values": [{"measurement": "initial fluorescence", "setting": "[1]", "result": "increase in initial fluorescence"}, {"measurement": "initial melting slope", "setting": "[1]", "result": "increase in initial melting slope"}]}, {"smiles": "CC[C@@]1(O)C(=O)OCc2c1cc1n(c2=O)Cc2cc3ccccc3nc2-1", "note": "[camptothecin]", "values": [{"measurement": "effect on DNA melting curves", "setting": "dsDNA 1,000 ng/ml treated with non-genotoxic concentrations, PicoGreen normalized to ROX, 4° C. to 99° C.", "result": "lack of effect; also recorded: does not alter DNA melting"}]}, {"smiles": "CC[C@H](c1ccc(O)cc1)[C@@H](CC)c1ccc(O)cc1", "note": "[hexestrol]", "values": [{"measurement": "initial melting temperature", "result": "decrease in the initial melting temperature"}]}, {"smiles": "O=C1C(=O)c2ccccc2-c2ccccc21", "note": "[phenanthrenequinone]", "values": [{"measurement": "initial melting temperature", "setting": "dsDNA 1,000 ng/ml treated with increasing concentrations of compound, PicoGreen fluorescence normalized to ROX, 4° C. to 99° C.", "result": "increase in the initial melting temperature"}]}]}
